Test results published in the OPERA property sets (Mansouri et al. 2018).
Where a SMILES comes first, the peptide text is derived from it.

Row | Compound | logP
1 | CC(=O)OC1C(=O)C2(C)C(O)CC3OCC3(OC(C)=O)C2C(OC(=O)c2ccccc2)C2(O)CC(OC(=O)C(C)O)C(C)=C1C2(C)C (stereo not drawn) | 1.52
2 | O=[N+]([O-])c1nccn1CCC(O)CO (stereo not drawn) | -0.9
3 | CC(O)COc1ccccc1 (stereo not drawn) | 1.61
4 | CCOc1ccc(NC(=O)OCCN2CCOCC2)cc1 | 2.18
5 | Cc1ccc(CN2CCNC2=C[N+](=O)[O-])cn1 | -0.59
6 | NS(=O)(=O)c1ccc2ccccc2c1 | 1.55
7 | c1ccc(-c2nnn[nH]2)cc1 | 1.65
8 | Clc1ccc(-c2ccccc2)c(Cl)c1Cl | 5.86
9 | CC(=O)OCN1C(=O)C2=C(CCCC2)C1=O | 1.15
10 | CCOC(=O)c1ccc(N=NN(C)C)cc1 | 3.66
11 | CC(=O)OC1CC2(O)C3CCC4CC(OC5CC(O)C(OC6CC(O)C(OC7CC(O)C(O)C(C)O7)C(C)O6)C(C)O5)CCC4(C)C3CCC2(C)C1C1=CC(=O)OC1 (stereo not drawn) | 2.16
12 | Cc1ccccc1C(=O)OCC1CCC(n2cnc3c(=O)[nH]cnc32)O1 (stereo not drawn) | 1.02
13 | O=P([O-])(Oc1ccc(Cl)cc1)Oc1ccc(Cl)cc1 | 2.64
14 | Cc1cn(C2CC(N=[N+]=[N-])C(COC(=O)CCCNC(=O)C34CC5CC(CC(C5)C3)C4)O2)c(=O)[nH]c1=O (stereo not drawn) | 2.47
15 | CCCCCCNC(=O)C1(O)C(C)CC2C3CCC4=CC(=O)C=CC4(C)C3(F)C(O)CC21C (stereo not drawn) | 4.54
16 | Cc1ncc([N+](=O)[O-])n1CCc1ccncc1 | 0.06
17 | COc1cc2c(c(OC)c1OC)-c1ccc(OC)c(=O)cc1C(NC(=O)C(F)(F)F)CC2 (stereo not drawn) | 1.72
18 | Cc1ncc([N+](=O)[O-])n1CC#N | -0.07
19 | O=[N+]([O-])C=C1NCCN1Cc1ccccn1 | -0.87
20 | CNc1nc(Cl)c(SC)c(N2CCN(C)CC2)n1 | 2.99
21 | CCCC(CCC)(NC(C)=O)C(N)=O | 0.75
22 | O=c1nc(N=CN2CCOCC2)ccn1C1CC(O)C(CO)O1 (stereo not drawn) | -1.54
23 | CCc1ncc([N+](=O)[O-])n1C | 0.68
24 | CCC(=O)C(CS(=O)(=O)c1ccc(C)cc1)c1ccc(OC)cc1 (stereo not drawn) | 2.47
25 | CC(C)(C)C(=O)OCOC(=O)C1=C(CSc2nncs2)CSC2C(NC(=O)Cn3cnnn3)C(=O)N12 (stereo not drawn) | 1.45
26 | CCN(CC)C(=O)N(C)SN(C)C(=O)ON=C(C)SC | 3.2

Row | Compound | logP
27 | CCCC(=O)OC(C(=O)NC1C(=O)N2C(C(=O)O)=C(C)CSC12)c1ccccc1 (stereo not drawn) | 1.89
28 | CC(C1CC1)C(O)(Cn1cncn1)c1ccc(Cl)cc1 (stereo not drawn) | 2.9
29 | CC(=O)OC1CC(OC2C(O)CC(OC3CCC4(C)C(CCC5C4CC(O)C4(C)C(C6=CC(=O)OC6)CCC54O)C3)OC2C)OC(C)C1OC1CC(O)C(O)C(C)O1 (stereo not drawn) | 2
30 | COc1nc(N)nc(C(Cl)(Cl)Cl)n1 | 2.39
31 | CCC(=O)C(CS(=O)(=O)c1ccc(C)cc1)c1ccccc1 (stereo not drawn) | 2.45
32 | C#CCOc1c(Cl)cc(NC=NOCCOCC)cc1Cl | 3.7
33 | Clc1cc(Cl)c2oc3c(Cl)cc(Cl)c(Cl)c3c2c1 | 6.34
34 | Cc1ccc(C)c(Cl)c1 | 3.86
35 | COC1CC(OC2CCC3(C=O)C4CCC5(C)C(C6=CC(=O)OC6)CCC5(O)C4CCC3(O)C2)OCC1OC1CC(O)C(O)C(C)O1 (stereo not drawn) | -0.96
36 | Cc1ccc(C)c(NN=C(C#N)C#N)c1 | 3.08
37 | NC(=O)COc1cccc(Cc2cnc(N)nc2N)c1 | 0.28
38 | O=C(NCCCOc1cccc(CN2CCCCC2)c1)c1ccccc1 | 3.97
39 | CNC(=O)N(C)c1nnc(C(C)(C)C)s1 | 1.79
40 | O=C1CN=C(c2ccccc2)c2cc(C(F)(F)F)ccc2N1 | 3.1
41 | CCCn1cnc2c(NC(C)=O)ncnc21 | 0.09
42 | Clc1cccc(-c2cc(Cl)c(Cl)c(Cl)c2Cl)c1Cl | 7.32
43 | CCOc1ccccc1NC(=O)OCCN1CCOCC1 | 2.27
44 | COc1cccc(C(=O)NP(=O)(N2CC2)N2CC2)c1 | 0.86
45 | COc1cccc(OC)c1-c1nc2ccncc2[nH]1 | 1.66
46 | Clc1cc(Cl)cc(-c2cc(Cl)c(Cl)c(Cl)c2Cl)c1 | 7.43
47 | CN(C)c1nc(=O)cc(-c2ccc([N+](=O)[O-])o2)s1 | 0.55
48 | c1ccc(Cn2cnnn2)cc1 | 1.36
49 | CC1CC2C3CCC4=CC(=O)C=CC4(C)C3(F)C(O)CC2(C)C1(O)C(=O)NCc1ccc([N+](=O)[O-])cc1 (stereo not drawn) | 3.44
50 | COc1ccc2cc(C(C)C(=O)OCC(N)=O)ccc2c1 (stereo not drawn) | 2.06
51 | Clc1ccc(Oc2nc(C(Cl)(Cl)Cl)nc(C(Cl)(Cl)Cl)n2)cc1 | 5.67
52 | Clc1ccc(Cl)c(-c2c(Cl)ccc(Cl)c2Cl)c1Cl | 7.12

Row | Compound | logP
53 | COC(=O)NCCn1c([N+](=O)[O-])cnc1C | 0.02
54 | CCOC(CC)(OCC)OCC | 1.97
55 | CC(C)CNCCCS(=O)(=O)c1ccc(S(N)(=O)=O)s1 | -0.35
56 | O=C(O)Cc1nn(Cc2nc3cc(Br)ccc3s2)c(=O)c2ccccc12 | 3.35
57 | Clc1ccc(Cl)c(-c2cc(Cl)c(Cl)c(Cl)c2Cl)c1 | 7.19
58 | CCN1C(=O)C(=O)c2c(cccc2[N+](=O)[O-])C1=O | 0.82
59 | O=NN(CCCl)C(=O)NC1CCCCC1C(=O)O (stereo not drawn) | 2.01
60 | CC1(c2ccc(F)cc2)OC2CC3C4CCC5=CC(=O)CCC5C4CCC3(C)C2(C(=O)CO)O1 (stereo not drawn) | 4.92
61 | Cc1cc(O)cc(Br)c1O | 1.38
62 | CON=C(C(=O)NC1C(=O)N2C(C(=O)OCOC(=O)C(C)(C)C)=CCSC12)c1csc(N)n1 (stereo not drawn) | 1.76
63 | Cc1ncnc2c1ncn2C1CCC(CO)O1 (stereo not drawn) | -0.12
64 | COCC(F)Cn1cnc([N+](=O)[O-])n1 (stereo not drawn) | -0.04
65 | Cc1cn(C2CC(N=[N+]=[N-])C(COC(=O)CNC(=O)C34CC5CC(CC(C5)C3)C4)O2)c(=O)[nH]c1=O (stereo not drawn) | 2.1
66 | CC(C)(N=C(O)C(Br)C(C)(C)C)c1ccccc1 (stereo not drawn) | 3.47
67 | CCN1CC(C(O)C(CC2CCCCC2)NC(=O)C(Cc2c[nH]cn2)NC(=O)C(Cc2ccc(OC)cc2)NC(=O)C(C)C)OC1=O (stereo not drawn) | 2.85
68 | CCN1C(=O)C(=O)c2ccc(OC)cc2C1=O | 1.49
69 | COC1=CC2CCC(NC(C)=O)c3cc(=O)c(OC)ccc3C2C(OC)=C1O (stereo not drawn) | 0.47
70 | O=C1CC(Sc2nc3ccccc3s2)N1 (stereo not drawn) | 2.3
71 | C#CCOc1c(Cl)cc(NC=NOCc2ccccc2)cc1Cl | 4.2
72 | C=CCn1cccn1 | 0.35
73 | CC1=C(N2CC2)C(=O)C(Br)=C(N2CC2)C1=O | 1.36
74 | COCCN1CCc2cccc(Cl)c2CC1 | 3
75 | O=c1n[n+]([O-])ccn1Cc1ccccc1 | 0.19
76 | CCc1nc(C)c([N+](=O)[O-])[nH]1 | 0.76
77 | Clc1cc(Cl)c(-c2cc(Cl)c(Cl)c(Cl)c2)cc1Cl | 7.5
78 | C=CCC1CN(C)CCC1(OC(=O)CC)c1ccccc1 (stereo not drawn) | 2.97

Row | Compound | logP
79 | O=C(O)c1ccc([N+](=O)[O-])c(O)c1 | 1.98
80 | C#CCC(O)(c1cccnc1)c1ccc2ccccc2c1 (stereo not drawn) | 2.14
81 | Cc1nc([N+](=O)[O-])c(C)[nH]1 | 0.43
82 | CCC(=O)OC(C(=O)NC1C(=O)N2C(C(=O)O)=C(C)CSC12)c1ccccc1 (stereo not drawn) | 1.47
83 | c1ccc(OCc2cccc(CN3CCCOC3)c2)cc1 | 2.75
84 | CN(C)c1nc(=O)n(C2CCCCC2)c(=O)n1C | 1.85
85 | C#CCOc1c(Cl)cc(NC=NOCC)cc1Cl | 3.6
86 | CCCCCC(NC(C)=O)C(=O)OC (stereo not drawn) | 1.28
87 | CC1CC(C(=O)O)=C(C(=O)O)C(C)C1 (stereo not drawn) | 1.53
88 | CCC(C)NC(=O)C(=Cc1ccccc1)c1ccccc1 (stereo not drawn) | 4.05
89 | CCN1CC(C(O)C(CC2CCCCC2)NC(=O)C(Cc2c[nH]cn2)NC(=O)C(Cc2ccc(OC)cc2)NC(=O)N(C)CCOCOC)OC1=O (stereo not drawn) | 2.3
90 | O=c1[nH]c(Nc2ccccc2)nc2c1ncn2C1CC(O)C(CO)O1 (stereo not drawn) | 0.4
91 | c1ccc(-c2ccc(C(c3ccccc3)n3ccnc3)cc2)cc1 (stereo not drawn) | 4.77
92 | CCCCNC(=O)CNC(=O)C=[N+]=[N-] | 0.37
93 | Nc1nc(Cl)nc2c1ncn2C1OC(CO)C(O)C1O (stereo not drawn) | -0.37
94 | N#CC(CCc1ccc(Cl)cc1)(Cn1cncn1)c1ccccc1 (stereo not drawn) | 3.23
95 | COc1ccc2[nH]c3c(c2c1)CCNc1cc(Cl)ccc1-3 | 4.24
96 | CN1C=CCC1c1cccnc1 (stereo not drawn) | 1.47
97 | CC1=C(/C=C/C(C)=C/C=C/C(C)=C/CO)C(C)(C)CCC1 | 5.68
98 | Clc1ccc(-c2cc(Cl)c(Cl)c(Cl)c2Cl)cc1Cl | 7.6
99 | Nc1ncc(Cc2ccccc2Cl)c(N)n1 | 2.24
100 | C#CCNC(=O)C1(O)C(C)CC2C3CCC4=CC(=O)C=CC4(C)C3(F)C(O)CC21C (stereo not drawn) | 2
101 | CNC(Cc1ccccc1)C(=O)O (stereo not drawn) | -1.53
102 | Cn1ccc(=O)c2ccccc21 | 0.44
103 | CN(C)N=Nc1cccc(C(N)=O)c1 | 1.3
104 | Oc1ccc(O)c2ncccc12 | 1.42

Row | Compound | logP
105 | CCC1COC(Cn2cncn2)(c2ccc(C(=N)N)cc2)O1 (stereo not drawn) | 0.85
106 | Clc1ccc(Cl)c(-c2c(Cl)c(Cl)c(Cl)c(Cl)c2Cl)c1 | 7.93
107 | CC(C)(C)C(=O)C(C#N)=NNc1ccc(Cl)cc1C(F)(F)F | 5.67
108 | CC(=O)NC(CCCCN)C(=O)NC(Cc1ccccc1)C(=O)NC(CC(C)C)C(N)=O (stereo not drawn) (Ac-Lys-Phe-Leu-NH2; configuration not given here) | 0.98
109 | Cn1c([N+](=O)[O-])cnc1-c1ccc(N)cc1 | 1.06
110 | c1ccc2c(c1)Cc1ccccc1S2 | 3.86
111 | ClC1CC(Cl)C(Cl)CC1Cl (stereo not drawn) | 2.82
112 | Cc1ccc(Cl)c(OCC(O)CNC(C)(C)C)c1 (stereo not drawn) | 2.97
113 | CCN(CC)CCSC(=NO)c1nc(C)no1 | 0.71
114 | CC(C)N1C(=O)C(=O)c2ccccc2C1=O | 1.6
115 | [N-]=[N+]=CC(=O)NCC(=O)N1CCOCC1 | -0.47
116 | S=C=NCCCCCc1ccccc1 | 4.4
117 | O=C(O)CCC(S)CCS (stereo not drawn) | 1.4
118 | C=CCN(C)N=Nc1ccccc1C(N)=O | 2.91
119 | COC(=O)CCCCC(S)CCS (stereo not drawn) | 2.27
120 | Nc1c2ncn(C3OC(CO)CC3F)c2nc[n+]1[O-] (stereo not drawn) | -1.38
121 | CCCCOc1cccc(NC(=O)OCCN2CCOCC2)c1 | 3.62
122 | Brc1ccc(Br)c(-c2cc(Br)c(Br)cc2Br)c1 | 7.1
123 | CC(=O)N(CC(O)CO)c1c(I)c(C(=O)NCCO)c(I)c(C(=O)NCCO)c1I (stereo not drawn) | -1.86
124 | CC(C)CCCNC(=O)C1(O)C(C)CC2C3CCC4=CC(=O)C=CC4(C)C3(F)C(O)CC21C (stereo not drawn) | 3.93
125 | COc1ccc(NC(=O)OCCN2CCOCC2)cc1 | 1.7
126 | O=[N+]([O-])c1cnc(-c2ccc(F)cc2)[nH]1 | 1.52
127 | CCC1COC(Cn2cncn2)(c2ccc(NC(=O)C(F)(F)F)cc2)O1 (stereo not drawn) | 1.08
128 | C#CCOc1c(Cl)cc(NC=NOCOC)cc1Cl | 3.2
